Counter-ions that a name gives are not always drawn.
target: T1, human recombinant ASK1 (Homo sapiens, UniProt Q99683); assay: Enzyme inhibition assay (in vitro ASK1 assay), luciferase-based measurement of remaining ATP; format: biochemical; settings: human recombinant ASK1, MBP and ATP as substrates, 180 minutes at 30° C.; triplicates on at least 2 separate occasions
T1 sequence (Q99683 1-1374): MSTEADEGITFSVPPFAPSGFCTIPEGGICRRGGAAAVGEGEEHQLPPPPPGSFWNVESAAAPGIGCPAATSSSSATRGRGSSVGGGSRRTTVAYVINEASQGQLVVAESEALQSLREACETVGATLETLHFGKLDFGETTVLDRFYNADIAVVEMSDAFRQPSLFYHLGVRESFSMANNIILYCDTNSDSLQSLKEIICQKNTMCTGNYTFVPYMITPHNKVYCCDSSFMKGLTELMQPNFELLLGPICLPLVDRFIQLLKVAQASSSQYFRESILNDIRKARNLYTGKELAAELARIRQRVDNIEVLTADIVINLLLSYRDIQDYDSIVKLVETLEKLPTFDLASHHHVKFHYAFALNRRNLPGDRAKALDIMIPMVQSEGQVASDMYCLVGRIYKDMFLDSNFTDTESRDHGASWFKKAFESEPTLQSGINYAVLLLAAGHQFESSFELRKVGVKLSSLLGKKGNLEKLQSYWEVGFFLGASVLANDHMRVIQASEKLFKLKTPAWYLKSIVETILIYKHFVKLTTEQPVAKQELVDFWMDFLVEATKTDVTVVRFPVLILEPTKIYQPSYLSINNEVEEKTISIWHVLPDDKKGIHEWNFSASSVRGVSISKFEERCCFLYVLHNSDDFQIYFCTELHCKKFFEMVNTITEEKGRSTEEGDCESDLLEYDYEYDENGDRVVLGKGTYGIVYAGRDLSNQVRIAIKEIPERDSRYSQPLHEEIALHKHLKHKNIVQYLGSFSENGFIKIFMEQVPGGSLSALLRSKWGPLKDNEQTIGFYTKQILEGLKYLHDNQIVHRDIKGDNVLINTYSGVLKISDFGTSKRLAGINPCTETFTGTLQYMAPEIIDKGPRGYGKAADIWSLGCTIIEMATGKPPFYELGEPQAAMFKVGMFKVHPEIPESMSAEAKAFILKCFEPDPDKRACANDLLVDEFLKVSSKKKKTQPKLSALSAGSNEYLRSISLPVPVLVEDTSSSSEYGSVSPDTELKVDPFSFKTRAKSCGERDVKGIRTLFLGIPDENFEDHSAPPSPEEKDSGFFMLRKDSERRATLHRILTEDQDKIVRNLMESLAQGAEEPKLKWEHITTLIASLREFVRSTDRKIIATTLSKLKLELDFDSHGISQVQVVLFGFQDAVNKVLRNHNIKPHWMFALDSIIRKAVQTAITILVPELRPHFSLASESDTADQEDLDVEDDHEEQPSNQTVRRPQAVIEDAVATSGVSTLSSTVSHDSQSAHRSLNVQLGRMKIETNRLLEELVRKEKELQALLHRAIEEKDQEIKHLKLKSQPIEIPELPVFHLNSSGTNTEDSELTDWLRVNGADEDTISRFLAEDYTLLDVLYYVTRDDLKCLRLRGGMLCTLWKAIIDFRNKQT
Procedure: Assays were performed in a 384 well plate (Corning, #3654) format, using the human recombinant ASK1 as an enzyme and MBP (myelin basic protein, Upstate/Millipore, #13-104) with ATP as substrates. Assay read out was the measurement of the amount of ATP remaining after stopping the reaction, using a luciferase-based kit from Cambrex.
Compounds to be tested were dissolved in 100% DMSO at a concentration of 10 mM. Subsequent dilutions were performed in 100% DMSO using a Biomek FX Workstation. 5 μL of diluted compound or vehicle (6% DMSO) was distributed to a 384 well plate. 5 μL of substrates (ATP 7.5 μM, MBP 450 ng/μL) diluted in ASK1 buffer (20 mM Tris HCl pH 7.4, 0.001% Brij35, 0.01% BSA, 5 mM MgCl2, 1 mM DL-Dithiothreitol) were added, followed by 5 μL at of human recombinant ASK1 enzyme (22.5 ng/mL) diluted in ASK1 buffer in order to start the reaction. The reaction ran for 180 minutes at 30° C. before the addition of 5 μL of stop solution (Cambrex, #LT23-231). 10 μL of Pklight ATP detection reagent (Cambrex #LT23-233) were added. After 120 min of incubation, luminescence was measured on a Perkin-Elmer Victor 2 spectrofluorimeter. The percentage of inhibition relative to the fluorescence observed in the presence of solvent (1% DMSO) alone was determined. The IC50 values for inhibition were determined in triplicates on at least 2 separate occasions.

Row | SMILES | IC50 [nM]
1 | O=C(Nc1nc2cccc(-c3ccoc3)n2n1)c1ccc(C(F)(F)F)cc1 [Example 3, N-[5-(3-furyl)[1,2,4]triazolo[1,5-a]pyridin-2-yl]-4-(trifluoromethyl)benzamide] | 8000 ± 400
2 | COCC(=O)Nc1nc2cccc(-c3ccoc3)n2n1 [Example 5, N-[5-(3-furyl)[1,2,4]triazolo[1,5-a]pyridin-2-yl]-2-methoxyacetamide] | 17000 ± 5000
3 | COC(=O)CCC(=O)Nc1nc2cccc(-c3ccoc3)n2n1 [Example 7, methyl 4-{[5-(3-furyl)[1,2,4]triazolo[1,5-a]pyridin-2-yl]amino}-4-oxobutanoate] | 7000 ± 1000
4 | O=C(Nc1nc2cccc(-c3ccc[nH]3)n2n1)C1CCCC1 [Example 10, N-[5-(1H-pyrrol-2-yl)[1,2,4]triazolo[1,5-a]pyridin-2-yl]cyclopentanecarboxamide] | 16000 ± 4000
5 | O=C(Nc1nc2cccc(-c3cn[nH]c3)n2n1)c1ccccc1 [Example 12, N-[5-(1H-pyrazol-4-yl)[1,2,4]triazolo[1,5-a]pyridin-2-yl]benzamide] | 14800 ± 200
6 | O=C(Nc1nc2cccc(NCc3ccco3)n2n1)c1ccccc1 [Example 44, N-{5-[(2-furylmethyl)amino][1,2,4]triazolo[1,5-a]pyridin-2-yl}benzamide] | 6900 ± 50
7 | O=C(Nc1nc2cccc(NCC3CCCO3)n2n1)c1ccccc1 (centres unmarked) [Example 45, N-{5-[(tetrahydrofuran-2-ylmethyl)amino][1,2,4]triazolo[1,5-a]pyridin-2-yl}benzamide] | 3380
8 | CCC(CO)Nc1cccc2nc(NC(=O)c3ccccc3)nn12 (centres unmarked) [Example 50, N-(5-{[1-(hydroxymethyl)propyl]amino}[1,2,4]triazolo[1,5-a]pyridin-2-yl)benzamide] | 8000 ± 1000
9 | CC(C)(C)OC(=O)NCc1ccc(C(=O)Nc2nc3cccc(-c4ccoc4)n3n2)cc1 [Example 52, tert-butyl[4-({[5-(3-furyl)[1,2,4]triazolo[1,5-a]pyridin-2-yl]amino}carbonyl)benzyl]carbamate] | 1700 ± 200
10 | Cc1ccc(CNc2cccc3nc(NC(=O)c4cccnc4)nn23)o1 [Example 63, N-(5-{[(5-methyl-2-furyl)methyl]amino}[1,2,4]triazolo[1,5-a]pyridin-2-yl)nicotinamide] | 9860
11 | CN1CCC(Nc2cccc3nc(NC(=O)c4ccccc4)nn23)CC1 [Example 72, N-{5-[(1-methylpiperidin-4-yl)amino][1,2,4]triazolo[1,5-a]pyridin-2-yl}benzamide] | 4080
12 | O=C(Nc1nc2cccc(SC3CCCCC3)n2n1)c1cccnc1 [Example 83, N-[5-(cyclohexylthio)[1,2,4]triazolo[1,5-a]pyridin-2-yl]nicotinamide] | 1900 ± 200
13 | CN(C)Cc1ccc(C(=O)Nc2nc3cccc(NC4CCCCC4)n3n2)cc1 [Example 87, N-[5-(cyclohexylamino)[1,2,4]triazolo[1,5-a]pyridin-2-yl]-4-[(dimethylamino)methyl]benzamide] | 5960
14 | CC(C)=Cc1cccc2nc(NC(=O)c3cccnc3)nn12 [Example 94, N-[5-(2-methylprop-1-en-1-yl)[1,2,4]triazolo[1,5-a]pyridin-2-yl]nicotinamide dihydrochloride] | 5900

More lines, now with the values ahead:

Row | IC50 [nM] | SMILES
15 | 990 ± 40 | COc1cc(-c2ccc3nc(NC(=O)c4ccccc4)nn3c2)ccc1O [Example 56, N-[6-(4-hydroxy-3-methoxyphenyl)[1,2,4]triazolo[1,5-a]pyridin-2-yl]benzamide hydrochloride]
16 | 180 ± 20 | O=C(Nc1nc2cccc(NC3CCCCCC3)n2n1)c1cccnc1 [Example 61, N-[5-(cycloheptylamino)[1,2,4]triazolo[1,5-a]pyridin-2-yl]nicotinamide dihydrochloride]
17 | 260 ± 10 | COc1cc(-c2ccc3nc(NC(=O)c4cccnc4)nn3c2)ccc1O [Example 66, N-[6-(4-hydroxy-3-methoxyphenyl)[1,2,4]triazolo[1,5-a]pyridin-2-yl]nicotinamide hydrochloride]
18 | 120 ± 10 | O=C(Nc1nc2cc(C(F)(F)F)cc(NC3CCCCC3)n2n1)c1cccnc1 [Example 74, N-[5-(cyclohexylamino)-7-(trifluoromethyl)[1,2,4]triazolo[1,5-a]pyridin-2-yl]nicotinamide]
19 | 1660 ± 50 | O=C(Nc1nc2cccc(NC3CCCOC3)n2n1)c1ccccc1 (centres unmarked) [Example 81, N-[5-(tetrahydro-2H-pyran-3-ylamino)[1,2,4]triazolo[1,5-a]pyridin-2-yl]benzamide]
20 | 110 ± 50 | O=C(Nc1nc2cccc(NC3CCCCC3)n2n1)c1ccc(N2CCOCC2)nc1 [Example 86, N-[5-(cyclohexylamino)[1,2,4]triazolo[1,5-a]pyridin-2-yl]-6-morpholin-4-ylnicotinamide]
21 | 460 ± 50 | O=C(Nc1nc2cc(C(F)(F)F)cc(NCC3CC3)n2n1)c1cccnc1 [Example 89, N-[5-[(cyclopropylmethyl)amino]-7-(trifluoromethyl)[1,2,4]triazolo[1,5-a]pyridin-2-yl]nicotinamide]
22 | 700 ± 100 | COC(=O)[C@H]1CC[C@H](Nc2cc(C(F)(F)F)cc3nc(NC(=O)c4cccnc4)nn23)CC1 [Example 90, methyl trans-4-{[2-[(pyridin-3-ylcarbonyl)amino]-7-(trifluoromethyl)[1,2,4]triazolo[1,5-a]pyridin-5-yl]amino}cyclohexanecarboxylate]
23 | 990 ± 110 | O=C(CCNC(=O)c1ccccc1)Nc1nc2cccc(-c3ccoc3)n2n1 [Example 96, N-(3-{[5-(3-furyl)[1,2,4]triazolo[1,5-a]pyridin-2-yl]amino}-3-oxopropyl)benzamide]
24 | 42 ± 7 | CC(C)Nc1cc(C(F)(F)F)cc2nc(NC(=O)c3cccnc3)nn12 [Example 99, N-[5-(isopropylamino)-7-(trifluoromethyl)[1,2,4]triazolo[1,5-a]pyridin-2-yl]nicotinamide]
25 | 56 ± 8 | CCC(C)Nc1cc(C(F)(F)F)cc2nc(NC(=O)c3cccnc3)nn12 (centres unmarked) [Example 100, N-[5-(sec-butylamino)-7-(trifluoromethyl)[1,2,4]triazolo[1,5-a]pyridin-2-yl]nicotinamide]
26 | 519 ± 113 | O=C(Nc1nc2cccc(NCC3CCCCC3)n2n1)c1cccnc1 [Example 115, N-{5-[(cyclohexylmethyl)amino][1,2,4]triazolo[1,5-a]pyridin-2-yl}nicotinamide]
27 | 87 ± 6 | O=C(Nc1nc2cc(Cl)cc(NC3CCC3)n2n1)c1cccnc1 [Example 118, N-[7-chloro-5-(cyclobutylamino)[1,2,4]triazolo[1,5-a]pyridin-2-yl]nicotinamide]
28 | 67 ± 12 | O=C(Nc1nc2cc(Cl)cc(NC3CCCCC3)n2n1)c1cccnc1 [Example 120, N-[7-chloro-5-(cyclohexylamino)[1,2,4]triazolo[1,5-a]pyridin-2-yl]nicotinamide]
29 | 197 ± 6 | O=C(Nc1nc2cc(C(F)(F)F)cc(NCCCO)n2n1)c1cccnc1 [Example 124, N-[5-[(3-hydroxypropyl)amino]-7-(trifluoromethyl)[1,2,4]triazolo[1,5-a]pyridin-2-yl]nicotinamide]

— patent US8263595B2, “Triazolopyridine compounds and their use as ask inhibitors” (Merck Serono SA, priority 2007, dated 2012)
